pKi: −log10 of the molar value. Read-outs that look alike come from different tables or passages of the source.
Experiments:
mGluR5 receptors = target: T1, mGluR5 receptors (Homo sapiens, UniProt P41594); assay: In vitro binding to glutamate receptors ([^3H]MPEP displacement, membranes of transfected cell lines); details: mGluR5, radioligand [^3H]MPEP
T1 construct: expressed in transfected cells; host or cells: transiently or stably transfected cell lines (e.g., HEK293, COS, CHO, NIH3T3)
Procedure: The assay buffer is Standard Binding Buffer (50 mM Tris-HCl, 10 mM MgCl2, 0.1 mM EDTA, pH 7.4) and the membrane fraction source is transiently or stably transfected cell lines (e.g., HEK293, COS, CHO, NIH3T3)
Aliquots (50 μL) of radioligand are dispensed into the wells of a 96-well plate containing 100 μl of Standard Binding Buffer. Then, duplicate 50-μL aliquots of the test and reference compound dilutions are added.
The 250-4, reactions are incubated at room temperature and shielded from light (to prevent photolysis of light-sensitive ligands) for 1 hour, then harvested by rapid filtration onto Whatman GF/B glass fiber filters pre-soaked with 0.3% polyethyleneimine using a 96-well Brandel harvester. Four rapid 500-μL washes are performed with chilled Standard Binding Buffer to reduce non-specific binding. Filters are placed in 6-mL scintillation tubes and allowed to dry overnight. The next day, 4 mL of EcoScint scintillation cocktail (National Diagnostics) are added to each tube. The tubes are capped, labeled, and counted by liquid scintillation counting. […] The filter mats are dried, then scintillant is melted onto the filters and the radioactivity retained on the filters is counted in a Microbeta scintillation counter.
Raw data (dpm) representing total radioligand binding (i.e., specific+non-specific binding) are plotted as a function of the logarithm of the molar concentration of the competitor (i.e., test or reference compound).
Ki=IC50/(1+[ligand]/KD) (Eqn. 2)
where [ligand] equals the assay radioligand concentration and KD equals the affinity constant of the radioligand for the target receptor.

[1] = human subjects; cited from earlier work
[2] = rat; cited from earlier work
[3] = monkey; cited from earlier work

T1 sequence (P41594 21-1212): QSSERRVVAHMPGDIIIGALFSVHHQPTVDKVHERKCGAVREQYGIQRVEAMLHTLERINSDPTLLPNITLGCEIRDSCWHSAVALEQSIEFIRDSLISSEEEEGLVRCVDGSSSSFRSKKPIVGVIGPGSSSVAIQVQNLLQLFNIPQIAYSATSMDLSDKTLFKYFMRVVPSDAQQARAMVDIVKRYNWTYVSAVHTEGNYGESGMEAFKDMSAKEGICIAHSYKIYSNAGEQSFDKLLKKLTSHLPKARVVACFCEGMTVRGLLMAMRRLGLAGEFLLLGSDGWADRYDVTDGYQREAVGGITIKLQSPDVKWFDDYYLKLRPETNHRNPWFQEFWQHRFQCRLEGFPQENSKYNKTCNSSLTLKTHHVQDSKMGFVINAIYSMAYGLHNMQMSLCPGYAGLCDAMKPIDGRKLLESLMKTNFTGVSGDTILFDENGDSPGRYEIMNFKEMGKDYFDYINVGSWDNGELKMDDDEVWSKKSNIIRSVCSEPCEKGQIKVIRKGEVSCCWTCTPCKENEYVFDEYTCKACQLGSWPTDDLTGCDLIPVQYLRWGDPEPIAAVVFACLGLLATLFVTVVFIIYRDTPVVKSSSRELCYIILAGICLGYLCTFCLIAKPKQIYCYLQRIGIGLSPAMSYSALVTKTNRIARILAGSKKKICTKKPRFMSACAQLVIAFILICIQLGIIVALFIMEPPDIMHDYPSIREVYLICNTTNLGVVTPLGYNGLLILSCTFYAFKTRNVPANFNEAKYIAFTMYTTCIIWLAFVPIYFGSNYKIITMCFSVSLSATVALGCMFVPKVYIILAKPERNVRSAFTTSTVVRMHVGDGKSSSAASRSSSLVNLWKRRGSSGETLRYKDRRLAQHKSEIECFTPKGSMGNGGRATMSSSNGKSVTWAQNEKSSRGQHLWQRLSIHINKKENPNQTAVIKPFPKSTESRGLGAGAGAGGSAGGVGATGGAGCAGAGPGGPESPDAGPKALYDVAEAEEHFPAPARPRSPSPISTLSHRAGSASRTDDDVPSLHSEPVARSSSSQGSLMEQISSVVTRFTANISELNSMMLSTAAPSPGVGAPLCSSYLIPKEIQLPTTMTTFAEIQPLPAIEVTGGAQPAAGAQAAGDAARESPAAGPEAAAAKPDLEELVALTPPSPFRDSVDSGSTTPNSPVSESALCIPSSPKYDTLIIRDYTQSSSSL

For `N#Cc1cc(F)cc(C#Cc2csc(F)n2)c1` [Compound 14, 3-fluoro-5-((2-fluorothiazol-4-yl)ethynyl)benzonitrile], the pKi (mGluR5 receptors) was greater than 7.30.

For `N#Cc1cc(F)cc(C#Cc2csc(C[18F])n2)c1` [[^18F]SP203, 3-fluoro-5-[[2-([^18F]fluoromethyl)thiazol-4-yl]ethynyl]benzonitrile], the defluorination [1] is listed as “slower or negligible”, the defluorination [2] is listed as “rapidly defluorinated” and the defluorination [3] is listed as “rapidly defluorinated”.

With `N#CCc1cccc(C#Cc2csc(F)n2)c1` [Compound 16] the pKi (mGluR5 receptors) was greater than 7.30.

In the case of `COc1cccc(C#Cc2csc(F)n2)c1` [Compound 15], the pKi (mGluR5 receptors) was greater than 7.30.

With `Fc1nc(C#Cc2ccccc2)cs1` [Compound 12, 2-fluoro-4-(phenylethynyl)thiazole] the pKi (mGluR5 receptors) was greater than 6.82.

With `N#Cc1cccc(C#Cc2csc(F)n2)c1` [Compound 13, (5-((2-fluorothiazol-4-yl)ethynyl)benzonitrile)] the pKi (mGluR5 receptors) was greater than 7.30.

— patent US20110098326A1, “2-FLUOROTHIAZOLE DERIVATIVES USEFUL AS IMAGING AGENTS; METHODS OF SYNTHESIS, AND METHODS OF USE” (priority 2009, published 2011)
